Read-outs that look alike come from different tables or passages of the source.
Columns and labels:
MCF-7 cells [1] = assay: Apoptosis assay (Annexin V-FITC/PI flow cytometry), MCF-7; assay type: cell-based, human
Method: (§1) Two reference concentrations, 5 μM and 50 μM, and two distinct treatment durations, 24 and 48 h, were employed to assess the influence of the test compounds on apoptosis in both normal and tumor cells. […] HUVEC cells were exposed to both drugs.
(§2) The apoptosis assay was performed according to the manufacturer’s instructions using the Annexin V-FITC kit (BD Biosciences, San Jose, CA, USA). Cells untreated and treated with the experimental compound were suspended in a cold binding buffer. The percentages of apoptotic cells were determined by double staining with Annexin V-FITC/PI. In each tube was added 400 μL of Annexin V binding buffer and the 5000 cells/sample for 15 min in the dark at room temperature. The cells were analyzed using a FACSCantoII flow-cytometer (Becton Dickinson—BD, La Jolla, CA, USA). The analysis was performed using DIVA 6.2 software to discriminate viable cells (FITC-PI-) from necrotic cells (FITC + PI+), and early apoptosis (FITC + PI) from late apoptosis.

HUVEC normal cells = assay: MTS cell viability assay, HUVEC normal cells; assay type: cell-based, human
Method: (§3) To determine the optimal working concentration, dose-effect curves were made for each compound in the range of concentrations between 6.25 and 400 μM.
(§4) LoVo (human colorectal adenocarcinoma) human cancer cell line and HUVEC normal cells were purchased from American Type Culture Collection (ATCC). The MCF-7 human breast adenocarcinoma cell line was provided from European Collection of Authenticated Cell Cultures (ECACC). HUVEC normal cells, isolated from the vascular endothelium of an umbilical cord, were used as a reference. Adherent cells were maintained in culture in Dulbecco’s modified Eagle medium/nutrient mixture F-12 (DMEM:F12) with 2 mM of L-glutamine, 10% fetal bovine serum, 100 units/mL of penicillin and 100 μg/mL of streptomycin, and incubated at 37 °C in a 5% CO2-humidified atmosphere. After 24 h, adherent cells were treated with different concentrations of the compounds for different periods of time. Cis-Pt and DOX, conventional oncology drugs used in cancer treatments, can be used as a positive control of the experiments. […] Then, cells were detached with a nonenzymatic solution of phosphate-buffered saline (PBS)/1 mM EDTA and washed twice in PBS.
(§5) The study utilized a colorimetric assay based on MTS (chemically known as 3-(4,5-dimethylthiazol-2-yl)-5-(3-carboxymethoxyphenyl)-2-(4-sulfophenyl)-2H-tetrazolium) and called CellTiter 96 Aqueous One Solution Cell proliferation Assay (Promega, Madison, WI, USA) in order to measure cell viability. The assay was performed in triplicate in 96-well microtiter plates with a flat bottom (Falcon). A number of 1 × 10^4 cells/well were cultured in 100 μL for 24 h, culture supernatants were discarded, and then cells were treated for 24 and 48 h with increasing concentrations of the tested compound. After the end of the incubation time, 20 μL of the reagent containing MTS and PES (phenazine ethosulfate) was added in each well. Plates were incubated for 4 h at 37 °C, with mild agitation every 15 min. The reduction in the tetrazolium compound to formazan was spectrophotometrically measured at λ = 492 nm using a Dynex plate reader (DYNEX Technologies MRS, Chantilly, VA, USA). The percentage of viability compared to untreated cells (considered 100% viable) was calculated with the formula:(1) Cell viability (%)=Absorbance treated cells−Absorbance culture medium/Absorbance untreated cells−Absorbance culture medium×100
(§6) The cell viability compared was calculated and data were expressed as a mean ± standard deviation (SD) of the experiments and obtained in triplicate (n = 3).

LoVo cells [2] = assay: MTS cell viability assay, LoVo cells; assay type: cell-based, human
Method: as §3, §4, §5, §6

HUVEC cells = assay: Apoptosis assay (Annexin V-FITC/PI flow cytometry), HUVEC; assay type: cell-based, human
Method: as §1, §2

MCF-7 cells [3] = assay: MTS cell viability assay, MCF-7 cells; assay type: cell-based, human; settings: for IC50: Homo sapiens
Method: as §3, §4, §5, §6

Daphnia magna = Daphnia magna toxicity assay; assay type: in vivo; settings: for Maximum Average L% (lethality): up to 200 µM
Method: (§7) The Daphnia magna bioassay results are presented in Table 3 as the maximum average percentage of lethality (L%) registered for each compound and the median lethal concentration (LC50) if the values permitted its calculation.
(§8) Daphnia magna Straus is parthenogenetically maintained at ‘Carol Davila’ University’s Department of Pharmaceutical Botany and Cell Biology. The culture was consistently maintained at a temperature of 25 °C, with a 16-h light and 8-h dark photoperiod. To ensure consistency, young daphnids were carefully chosen based on their size and kept in an artificial medium for 24 h prior to the assessment. The bioassay involved 10 daphnids per replicate, using tissue culture plates with 12 wells from Greiner Bio-One. The experimental procedure followed the protocol described in previous studies.
(§9) Each determination was carried out in duplicate.

LoVo cells [4] = assay: Apoptosis assay (Annexin V-FITC/PI flow cytometry), LoVo; assay type: cell-based, human
Method: as §1, §2

[5] = Daphnia magna toxicity assay; assay type: in vivo; settings: Daphnia magna, in vivo; 48 h
Method: as §7, §8, §9

[6] = Homo sapiens, HUVEC, read-out: IC50 (48 h) HUVEC, 48 h exposure
[7] = Homo sapiens, HUVEC, 24 h exposure, read-out: IC50 (24 h) HUVEC
[8] = Homo sapiens, LoVo, read-out: IC50 (48 h) LoVo, 48 h exposure
[9] = Homo sapiens, LoVo, 24 h exposure, read-out: IC50 (24 h) LoVo
[10] = MCF7, read-out: IC50 (48 h) MCF-7, 48 h exposure
[11] = MCF7, 24 h exposure, read-out: IC50 (24 h) MCF-7

| Compound | Total Apoptosis (%) 24 h MCF-7 (MCF-7 cells [1]; 5 μM) | Total Apoptosis (%) 48 h MCF-7 (MCF-7 cells [1]; 5 μM) | Total Apoptosis (%) 24 h MCF-7 (MCF-7 cells [1]; 50 μM) | Total Apoptosis (%) 48 h MCF-7 (MCF-7 cells [1]; 50 μM) | IC50 (HUVEC normal cells; [6]) | IC50 (HUVEC normal cells; [7]) | IC50 (LoVo cells [2]; [8]) | IC50 (LoVo cells [2]; [9]) | Total Apoptosis (%) 24 h HUVEC (HUVEC cells; 5 μM) | Total Apoptosis (%) 48 h HUVEC (HUVEC cells; 5 μM) | Total Apoptosis (%) 24 h HUVEC (HUVEC cells; 50 μM) | Total Apoptosis (%) 48 h HUVEC (HUVEC cells; 50 μM) | IC50 (MCF-7 cells [3]; [10]) | IC50 (MCF-7 cells [3]; [11]) | Maximum Average L% (lethality) (Daphnia magna; 24 h) | Maximum Average L% (lethality) (Daphnia magna; 48 h) | Total Apoptosis (%) 24 h LoVo (LoVo cells [4]; 5 μM) | Total Apoptosis (%) 48 h LoVo (LoVo cells [4]; 5 μM) | Total Apoptosis (%) 24 h LoVo (LoVo cells [4]; 50 μM) | Total Apoptosis (%) 48 h LoVo (LoVo cells [4]; 50 μM) | also measured |
| --- | --- | --- | --- | --- | --- | --- | --- | --- | --- | --- | --- | --- | --- | --- | --- | --- | --- | --- | --- | --- | --- |
| Nc1nnc(-c2ccccc2)s1 [2a, 5-Phenyl-1,3,4-thiadiazol-2-amine] | 11.8% | 24.4% | 9.8% | 24.7% | 83.8 µM | > 400 µM | 62.2 µM | 204 µM | 12.8% | 14.7% | 15.0% | 18.4% | > 400 µM | > 400 µM | 0% | 40% | 9.0% | 17.6% | 8.9% | 13.7% |  |
| Cc1ccc(-c2nnc(N)s2)cc1 [2b, 5-(4-Methylphenyl)-1,3,4-thiadiazol-2-amine] | 8.0% | 16.7% | 8.4% | 25.4% | 70.9 µM | > 400 µM | 124 µM | 134 µM | 16.7% | 15.7% | 13.6% | 16.6% | > 400 µM | > 400 µM | 10% | 55% | 6.9% | 14.0% | 6.3% | 12.3% | LC50 at 48 h [5]: 144 µM |
| Nc1nnc(-c2ccc(O)c(O)c2)s1 [2c, 5-(3,4-Dihydroxyphenyl)-1,3,4-thiadiazol-2-amine] | 11.7% | 26.6% | 7.6% | 15.1% | 155 µM | > 400 µM | 117 µM | 163 µM | 16.6% | 15.6% | 12.1% | 12.1% | 398 µM | > 400 µM | 0% | 25% | 7.5% | 13.0% | 6.8% | 13.8% | viability of MCF-7 cells (MCF-7 cells [3]; 48-h period): less than 50% |
| COc1cc(-c2nnc(N)s2)cc(OC)c1OC [2e, 5-(3,4,5-Trimethoxyphenyl)-1,3,4-thiadiazol-2-amine] | 9.1% | 24.6% | 14.9% | 34.2% | 300 µM | > 400 µM | 79.2 µM | 108 µM | 26.3% | 13.1% | 24.3% | 15.5% | > 400 µM | > 400 µM | 0% | 5% | 4.9% | 14.3% | 16.4% | 19.9% |  |
| Nc1nnc(-c2ccccc2CSc2ccccc2)s1 [2f, 5-[2-(Phenylthiomethyl)phenyl]-1,3,4-thiadiazol-2-amine] | 22.0% | 44.0% | 12.6% | 45.0% | > 400 µM | > 400 µM | 80.7 µM | > 400 µM | 19.9% | 15.9% | 18.6% | 14.6% | > 400 µM | > 400 µM | 5% | 10% | 14.9% | 27.0% | 8.2% | 17.4% |  |
| Nc1nnc(-c2ccccc2CS(=O)(=O)c2ccccc2)s1 [2g, 5-[2-(Benzenesulfonylmethyl)phenyl]-1,3,4-thiadiazol-2-amine] | 18.7% | 42.2% | 19.7% | 44.5% | 44.6 µM | > 400 µM | 2.44 µM | 18.1 µM | 19.0% | 14.7% | 19.3% | 14.1% | 23.3 µM | 43.3 µM | 0% | 20% | 13.6% | 23.6% | 19.6% | 24.8% | lethality percentages in the Daphnia test (Daphnia magna; even at the highest concentration of 200 µM): below 20% |
| N.N.[Cl][Pt][Cl] [Cis-Pt, Cisplatin, reference compound] |  |  |  |  |  |  |  |  | 15.7% | 14.8% | 21.7% | 17.4% |  |  |  |  | 15.7% | 31.6% | 24.5% | 38.7% | IC50 (HUVEC normal cells; 24 h exposure, read-out: IC50 (24 h) HUVEC): 11.1 µM; IC50 (HUVEC normal cells; read-out: IC50 (48 h) HUVEC, 48 h exposure): 8.23 µM; IC50 (LoVo cells [2]; 24 h exposure, read-out: IC50 (24 h) LoVo): 12.8 µM; IC50 (LoVo cells [2]; read-out: IC50 (48 h) LoVo, 48 h exposure): 80.1 µM |
| COc1cccc2c1C(=O)c1c(O)c3c(c(O)c1C2=O)C[C@@](O)(C(=O)CO)C[C@@H]3O[C@H]1C[C@H](N)[C@H](O)[C@H](C)O1 [DOX, Doxorubicin, reference compound] |  | 33.6% | 19.0% | 49.0% | 1.35 µM | 1.03 µM |  |  | 15.2% | 9.5% | 18.6% |  | 87.4 µM | 129 µM |  |  |  |  |  |  |  |
